From patent publication US10624278B2, “Cultivation method for the rapid propagation of Davidia involucrata winter buds” (Mianyang Teachers' College, priority 2017, dated 2020) come the findings set out here.

Holding throughout (type): in vivo
In series [1] the test system is Davidia involucrata saplings. Kind of series: cultivating the strong seedlings. Further details: unit not given here. The conditions noted are these: for K1: mean average height at level 1 of the factor (GA3 0.5, NAA 0.5, 6-BA 0.2); for K2: mean average height at level 2 of the factor (GA3 1.0, NAA 1.0, 6-BA 0.6); for K3: mean average height at level 3 of the factor (GA3 1.5, NAA 1.5, 6-BA 1.0); for R: range of K values of the factor, average height. How it is done: inoculating the plurality of Davidia involucrata saplings obtained in step (4) in nine groups of WPM medium (See Table 8) containing different concentrations of NAA, 6-BA and GA3 at the temperature of 24±1° C. and illuminating for 10 hours per day at 2000 1× to cultivate the plurality of Davidia involucrata saplings obtained in step (4) for 36 days. The amount of AC added for each group of WPM medium is 1.0 g/L. Calculating the average height of the saplings (See Table 9).

Series [2] has as its system Davidia involucrata saplings. Kind of series: rooting cultivation (orthogonal experiment). Set-up: unit not given here. The conditions noted are these: for K1: mean rooting ratio at level 1 of the factor (¼MS, IBA 1.0, 6-BA 0, AC 0.5); for K2: mean rooting ratio at level 2 of the factor (WPM, IBA 2.0, 6-BA 1.0, AC 1.0); for K3: mean rooting ratio at level 3 of the factor (White, IBA 3.0, 6-BA 1.5, AC 1.5); for R: range of K values of the factor, rooting ratio. The protocol: inoculating the plurality of Davidia involucrata saplings in good condition obtained in step (5) in the White, WPM and 1/4 MS medium (See Table 10) containing different concentrations of IBA, 6-BA and AC at the temperature of 24±1° C. and illuminating for 10 hours per day at 2000 1× to cultivate the plurality of Davidia involucrata saplings in good condition obtained in step (5) until rooting. Analyzing the rooting results (See Table 11).

The subject of series [3] is Davidia involucrata winter buds. Kind of series: disinfecting and sterilizing of the winter buds. How it is done:
disinfecting and sterilizing of the winter buds: immersing the plurality of winter buds collected in the field into a detergent solution with a concentration of […] for 2 minutes, gently cleaning the bud scales using a soft brush, rinsing for 2 hours with running water, and then immersing the winter buds using the 0.1% mercuric chloride solution for 20 minutes on a clean bench, rinsing with sterile water for more than 5 times, blotting up the water on the surface of the explants with sterile filter paper, stripping up all the scales of the winter buds using a tweezer to obtain the buds, treating with 75% ethanol and mercuric chloride solution or treating with mercuric chloride solution only. Wherein each treatment is inoculated into 30 bottles and 2 explants in each bottle. The specific progress is as follows: […]

The mark [4] stands for this setting: Disposal 1: mercuric chloride only, treating time 4 min.
Where [5] appears, read: Disposal 2: mercuric chloride only, treating time 5 min.
Where [6] appears, read: Disposal 3: mercuric chloride only, treating time 6 min.
The mark [7] stands for this setting: Disposal 4: mercuric chloride only, treating time 7 min.
Where [8] appears, read: Disposal 5: mercuric chloride only, treating time 8 min.

In series [1], `C=C1C[C@]23C[C@@]1(O)CC[C@H]2[C@@]12C=C[C@H](O)[C@@](C)(C(=O)O1)[C@H]2[C@@H]3C(=O)O` [GA3] returned a K1 of 1.663, a K2 of 2.037, a K3 of 1.713 and an R of 0.374.

Consider `c1ccc(CNc2ncnc3[nH]cnc23)cc1` [6-BA], for which, in series [1], the K1 is 1.820, the K2 is recorded as 1.697, the K3 is reported as 1.897 and the R is on record as 0.200. Further, in series [2], the K1 turned out to be 48.340, the K2 is given as 67.907, the K3 is 57.150 and the R came out at 19.567.

`[Cl][Hg][Cl]` [0.01% mercuric chloride solution, mercuric chloride]: the “Death rate (%)” value in series [3] (setting [4]) amounted to 3%; in series [3] (setting [5]), 5%; in series [3] (setting [6]), 6%; in series [3] (setting [7]), 36%; in series [3] (setting [8]), 45%. Moreover, the “Pollution rate (%)” value in series [3] (setting [4]) worked out at 38%; in series [3] (setting [5]), 27.2%; in series [3] (setting [6]) it was 18%; in series [3] (setting [7]), 16%; in series [3] (setting [8]) it was 10%.

In the case of `O=C(O)Cc1cccc2ccccc12` [NAA], in series [1], the K1 amounted to 1.537, the K2 is given as 2.067, the K3 worked out at 1.810 and the R is 0.530.

Take `O=C(O)CCCc1c[nH]c2ccccc12` [IBA]: in series [2], the K1 worked out at 55.663, the K2 was determined as 62.337, the K3 is given as 55.397 and the R stood at 6.940.
